For 12 compounds, AC50 and IC50 results are on record in patent US20250092065A1, “2-(INDAZOL-5-YL)-6-(PIPERIDIN-4-YL)-1,7-NAPHTHYRIDINE DERIVATIVES AND RELATED COMPOUNDS AS MODULATORS FOR SPLICING NUCLEIC ACIDS AND FOR THE TREATMENT OF PROLIFERATIVE DISEASES” (REMIX THERAPEUTICS INC., priority 2022, published 2025).

This assay deals with MYB mRNA. The assay can be described thus: RT-qPCR splicing assay, MYB mRNA canonical (CJ) and alternative (AJ) junction. The assay is classed as cell-based, human. The settings on record: Homo sapiens; for AC50: MYB alternative junction mRNA, read-out: MYB AJ (increase in AJ mRNA, AC50). In a few lines:
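A673 or K562 cells treated 24 h at 37 °C with an 11-point 3-fold dilution series (top 10 uM, DMSO ≤0.25%). Lysates went directly to one-step RT-qPCR quantifying canonical (CJ) and alternative-exon (AJ) junctions, normalized to GAPDH, GUSB or PPIA. Values from ΔΔCt versus DMSO, RQ = 2^(−ΔΔCt), expressed as percentage response.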
In general terms: Real-time PCR tracks product formation cycle by cycle.

[1] abbreviates: MYB canonical junction mRNA, RT-qPCR, read-out: MYB CJ (decrease in CJ mRNA levels, IC50).
The mark [2] stands for this setting: canonical junction qPCR panel, Table 4, read-out: MYB IC50 (decrease in CJ mRNA levels).

Where two headings read alike, the source gives them in different places. Where only a bound is given, the exact number is not on record here.

A word on the AC50: it is the midpoint of the concentration-response curve, whichever way the signal moves. A word on the IC50: it is the concentration needed to halve the response being measured. Turning to `Cn1cc2cc(-c3ncc4nc(C5CCNCC5)ccc4n3)c(O)c(C#N)c2n1` [Compound 403, 6-hydroxy-2-methyl-5-[6-(piperidin-4-yl)pyrido[3,2-d]pyrimidin-2-yl]indazole-7-carbonitrile; trifluoroacetic acid], the AC50 (RT-qPCR) is under 100 nM. In addition, the IC50 reads like this: under setting [1], 100 to 1000 nM; under setting [2], 100 to 1000 nM.
With `Cn1cc2cc(-c3ccc4nc(N5CCC(NC(C)(C)C)C5)ncc4n3)c(O)cc2n1` (stereo not drawn) [Compound 404, 5-{2-[3-(tert-butylamino)pyrrolidin-1-yl]pyrido[3,2-d]pyrimidin-6-yl}-2-methylindazol-6-ol], the AC50 (RT-qPCR) was 100 to 1000 nM. Moreover, the 50% inhibitory concentration (IC50) under setting [1] was 100 to 1000 nM and the IC50 under setting [2] fell in the range of 100 to 1000 nM.
With `COc1cc(-c2ccc3nc(N4CCC(NC(C)(C)C)C4)ncc3n2)cnn1` (stereo not drawn) [Compound 405, N-tert-butyl-1-[6-(6-methoxypyridazin-4-yl)pyrido[3,2-d]pyrimidin-2-yl]pyrrolidin-3-amine], the AC50 (RT-qPCR) fell in the range of 1000 to 10000 nM. Moreover, the IC50 is, setting by setting: under setting [1], 1000 to 10000 nM; under setting [2], 1000 to 10000 nM.
For `CN[C@H]1CCN(c2ccc3nc(-c4cc(C#N)c5nc(C)cn5c4)ncc3n2)C1` [Compound 406, 2-methyl-6-{6-[(3S)-3-(methylamino)pyrrolidin-1-yl]pyrido[3,2-d]pyrimidin-2-yl}imidazo[1,2-a]pyridine-8-carbonitrile], the AC50 (RT-qPCR) fell in the range of 100 to 1000 nM. Also, the IC50 was 1000 to 10000 nM under setting [1] and 1000 to 10000 nM under setting [2].
Turning to `CN[C@@H]1CCN(c2ccc3nc(-c4cc(C#N)c5nc(C)cn5c4)ncc3n2)C1` [Compound 407, 2-methyl-6-{6-[(3R)-3-(methylamino)pyrrolidin-1-yl]pyrido[3,2-d]pyrimidin-2-yl}imidazo[1,2-a]pyridine-8-carbonitrile], the AC50 (RT-qPCR) lay within 100 to 1000 nM. The IC50 reads like this: under setting [1], 100 to 1000 nM; under setting [2], 100 to 1000 nM.
`Cc1nc2cc(O)c(-c3ccc4nc(N5CCNCC5)ccc4n3)cc2o1` [Compound 408, 2-methyl-6-[6-(piperazin-1-yl)-1,5-naphthyridin-2-yl]-1,3-benzoxazol-5-ol]: the AC50 (RT-qPCR) was in the range of 100 to 1000 nM. Also, the IC50 runs as follows: under setting [1], 100 to 1000 nM; under setting [2], 100 to 1000 nM.
Regarding `Cc1nc2cc(O)c(-c3ccc4nc(N5CCN[C@@H](C)C5)ccc4n3)cc2o1` [Compound 409], the AC50 (RT-qPCR) is 100 to 1000 nM. Also, the IC50 is, setting by setting: under setting [1], 100 to 1000 nM; under setting [2], 100 to 1000 nM.
Consider `Cc1nc2cc(O)c(-c3ccc4nc(N5CCN6CCCC6C5)ccc4n3)cc2o1` (stereo not drawn) [Compound 410], for which the AC50 (RT-qPCR) was in the range of 100 to 1000 nM. Also, the IC50 under setting [1] was in the range of 100 to 1000 nM and the IC50 under setting [2] lay in the range of 100 to 1000 nM.
For `Cc1nc2cc(O)c(-c3ccc4nc(N5CCNC6(CC6)C5)ccc4n3)cc2o1` [Compound 411], the AC50 (RT-qPCR) was 100 to 1000 nM. Further, the IC50 lay within 100 to 1000 nM under setting [1] and 100 to 1000 nM under setting [2].
For the compound `Cc1nc2cc(O)c(-c3ccc4nc(N5CCC(NC(C)(C)C)CC5)ccc4n3)cc2o1` [Compound 412], the AC50 (RT-qPCR) lay in the range of 100 to 1000 nM. The IC50 is, setting by setting: under setting [1], 100 to 1000 nM; under setting [2], 100 to 1000 nM.
As to `Cc1nc2cc(O)c(-c3ccc4nc(N5CC[C@@H](NC(C)(C)C)C5)ncc4n3)cc2o1` [Compound 413, 6-{2-[(3R)-3-(tert-butylamino)pyrrolidin-1-yl]pyrido[3,2-d]pyrimidin-6-yl}-2-methyl-1,3-benzoxazol-5-ol], the AC50 (RT-qPCR) was under 100 nM. The IC50 by setting is: under setting [1], under 100 nM; under setting [2], under 100 nM.
In the case of `Cc1nc2cc(O)c(-c3ccc4nc(N5CC[C@H](NC(C)(C)C)C5)ncc4n3)cc2o1` [Compound 414, 6-{2-[(3S)-3-(tert-butylamino)pyrrolidin-1-yl]pyrido[3,2-d]pyrimidin-6-yl}-2-methyl-1,3-benzoxazol-5-ol], for the setting “RT-qPCR”, the AC50 fell in the range of 1000 to 10000 nM. For the same compound, the IC50 fell in the range of 1000 to 10000 nM under setting [1] and 1000 to 10000 nM under setting [2].
